{"source": "ChEMBL document CHEMBL1150986", "about": "“Tripeptidyl pyridinium methyl ketones as potent active site inhibitors of thrombin” (Bioorg Med Chem Lett, 1996)", "key": {"Prothrombin [1]": {"molecular_target": "T1, Prothrombin (Homo sapiens, UniProt P00734)", "assay": "Compound was measured for the inhibition of alpha-human thrombin by clotting test"}, "Prothrombin [2]": {"molecular_target": "T1, Prothrombin", "assay": "Compound was measured for the inhibition of alpha-human thrombin by amidolytic assay"}}}
{"smiles": "CC(=O)N[C@H](CC1CCCCC1)C(=O)N1CCC[C@H]1C(=O)N[C@@H](CCCN=C(N)N)C(=O)C[n+]1ccccc1", "values": [{"measurement": "Ki", "setting": "Prothrombin [1]", "result": 21, "unit": "nM"}, {"measurement": "IC50", "setting": "Prothrombin [2]", "result": 180, "unit": "nM"}]}
{"smiles": "N=C(N)NCCC[C@H](NC(=O)[C@@H]1CCCN1C(=O)[C@H](N)CC1CCCCC1)C(=O)C[n+]1ccccc1", "values": [{"measurement": "Ki", "setting": "Prothrombin [1]", "result": 0.19, "unit": "nM"}, {"measurement": "IC50", "setting": "Prothrombin [2]", "result": 1.7, "unit": "nM"}]}
{"smiles": "CC(=O)[C@H](CCCN=C(N)N)NC(=O)[C@@H]1CCCN1C(=O)[C@H](N)CC1CCCCC1", "values": [{"measurement": "Ki", "setting": "Prothrombin [1]", "result": 60, "unit": "nM"}, {"measurement": "IC50", "setting": "Prothrombin [2]", "result": 410, "unit": "nM"}]}
{"smiles": "N=C(N)NCCC[C@H](NC(=O)[C@@H]1CCCN1C(=O)[C@H](N)CC1CCCCC1)C(=O)Cc1ccccc1", "values": [{"measurement": "Ki", "setting": "Prothrombin [1]", "result": 1.25, "unit": "nM"}, {"measurement": "IC50", "setting": "Prothrombin [2]", "result": 9.9, "unit": "nM"}]}
{"smiles": "CC(=O)N[C@H](Cc1ccccc1)C(=O)N1CCC[C@H]1C(=O)N[C@@H](CCCNC(=N)N)C(=O)C[n+]1ccccc1", "values": [{"measurement": "Ki", "setting": "Prothrombin [1]", "result": 310, "unit": "nM"}, {"measurement": "IC50", "setting": "Prothrombin [2]", "result": 2700, "unit": "nM"}]}
{"smiles": "CC(=O)N[C@H](CC1CCCCC1)C(=O)N1CCC[C@H]1C(=O)N[C@@H](CCCN=C(N)N)C(=O)Cc1ccccc1", "values": [{"measurement": "Ki", "setting": "Prothrombin [1]", "result": 185, "unit": "nM"}, {"measurement": "IC50", "setting": "Prothrombin [2]", "result": 630, "unit": "nM"}]}
